From patent US20230146233A1, “A CLASS OF POLYCYCLIC COMPOUNDS INHIBITING RNA HELICASE DHX33 AND THE APPLICATION THEREOF” (Shenzhen KeYe Life Technologies, Co., Ltd, priority 2020, published 2023)

Tests used:
DHX33 protein = target: T1, DHX33 protein (Mus musculus, UniProt Q80VY9); assay: Inhibition of the helicase activity of DHX33 protein in vitro; type: biochemical; conditions: recombinant DHX33 protein, compound 1-1000 nM, 37° C., 60 minutes; read-out: IC50 (inhibitory effects of the compounds on the helicase activity of DHX33 protein)
T1 construct: purified full-length DHX33 protein; made in house; host or cells: E. coli BL-21pLysS (DE3)
T1 sequence (Q80VY9 1-698): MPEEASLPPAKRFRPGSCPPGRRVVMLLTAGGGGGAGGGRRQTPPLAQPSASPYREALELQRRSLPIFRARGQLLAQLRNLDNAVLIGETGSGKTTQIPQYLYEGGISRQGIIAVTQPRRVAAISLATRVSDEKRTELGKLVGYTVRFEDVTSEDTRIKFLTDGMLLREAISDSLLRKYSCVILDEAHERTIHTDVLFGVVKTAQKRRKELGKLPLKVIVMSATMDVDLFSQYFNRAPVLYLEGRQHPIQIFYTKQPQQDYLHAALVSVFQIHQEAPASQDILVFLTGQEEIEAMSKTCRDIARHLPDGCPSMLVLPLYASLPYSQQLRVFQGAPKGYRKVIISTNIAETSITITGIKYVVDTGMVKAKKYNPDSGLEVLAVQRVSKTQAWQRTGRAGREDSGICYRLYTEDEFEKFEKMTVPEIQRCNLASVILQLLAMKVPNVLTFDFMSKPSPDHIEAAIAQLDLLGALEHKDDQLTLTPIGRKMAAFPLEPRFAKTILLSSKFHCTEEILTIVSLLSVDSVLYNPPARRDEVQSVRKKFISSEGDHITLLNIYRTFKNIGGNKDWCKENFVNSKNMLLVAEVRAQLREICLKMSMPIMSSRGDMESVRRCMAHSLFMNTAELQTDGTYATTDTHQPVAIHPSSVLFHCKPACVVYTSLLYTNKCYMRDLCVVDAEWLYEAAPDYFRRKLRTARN
Protocol: Biochemistry. 2019:58 (4):250-8. RNA helicase gene (mouse DHX33 gene) was cloned into a pET32M-3C vector (between BamH I/Not I restriction sites). Afterward, the plasmid was transformed into BL-21pLysS (DE3) E. coli. 0.5 mM isopropyl 1-thio-βp-D-galactopyranoside (IPTG) was added, and the expression of the recombinant protein was induced at 16° C. for 16 hours. Cells were allowed to precipitate and were resuspended in a cell lysis buffer [50 mM Tris-HCl (pH7.2), 150 mM NaCl, 1% Triton X-100, and 50 mM imidazole supplemented with a protease inhibitor]. Thereafter, cells were subjected to ultrasonic treatment and centrifuged at a rotation speed of 13000 rpm for 25 minutes. The supernatant was incubated with the nickel-nitrilotriacetic acid beads equilibrated in Tris buffer, followed by sufficient washing. Thereafter, the purified protein was eluted with a solution of 300 mM imidazole in Tris buffer, and was then subjected to dialysis against an imidazole-free Tris buffer at 4° C. overnight.
The components involved in the reaction for testing the helicase activity were added to a 96-well opaque white plate. The method was outlined as follows. The 96-well plate was coated with neutravidin at a final concentration of 10 μg/mL (100 μl/well) overnight at 4° C. Afterwards, the neutravidin-coated plate was blocked with 100 μL of 0.1% (w/v) BSA (dissolved in normal PBS) at 22° C. for 2 hours. After washing, a DNA duplex (2.5 ng) that was resulted from the annealing of two single-stranded DNA oligonucleotides (the sequence of one single strand was biotin-labeled 5′-[…]-3′; and the sequence of the other single strand was DIG-labeled 5′-[…]-3′) [the annealing reaction was carried out in PBS (pH 7.0) containing 1M NaCl] was added, and the resulting mixture was incubated at 22° C. for 4 hours. After the addition of 90 μL of the reaction mixture, the helicase reaction was initiated [0.25 pig of purified full-length DHX33 protein, dissolved in 25 mM 4-MOPS (pH 7.0), 5 mM ATP 2 mM DTT, 3 mM MnCl2 and 100 μg/mL BSA]. The reaction was conducted at 37° C. for 60 minutes. After being washed, each well was incubated with a blocking solution [10% (w/v) BSA in 0.1 M maleic acid and 0.15 M NaCl (pH 7.5)] for 30 minutes, and was then incubated with 20 μL of antibody solution (anti-DIG-AP, Roche, in blocking buffer) for 30 minutes. After being washed with 100 μL of detection buffer [0.1 M Tris-HCl and 0.1 M NaCl (pH 9.5)], each well was added with 1 μL of chemiluminescent substrate (CSPD-0.25 mM), and the plate was incubated at 17° C. for 5 minutes. Afterwards, the plate was patted dry and incubated at 37° C. for 30 minutes. The remaining DIG-AP marker control in each well was counted for 10 minutes by a luminescence multi-well plate reader (Enspire, PerkinElmer). Higher reading indicated weaker helicase activity.
Positive control and negative controls were set for this acticity assay. Among them, one negative control group, which differed from the experimental group only in that the former was not added with ATP (other conditions were the same as the experimental group), was used for the comparison with the experimental group; another negative control group, which differed from the experimental group only in that the former was not added with DHX33 protein (other conditions were the same as the experimental group), was used for the comparison with the experimental group. The positive control group was set for the comparison with the wild-type DHX33 protein (standard substance).
Biochemistry. 2019:58 (4):250-8.
Compounds having a series of concentration (the concentrations were set at 1 nM, 5 nM, 10 nM, 20 nM, 50 nM, 100 nM, 250 nM, 500 nM, and 1000 nM) were used to conduct the helicase activity assay of […] protein in vitro. The half-maximal inhibitory concentrations of the compounds of the present disclosure on the helicase activity of […] protein were as shown in Table 1.

U251-MG cells = assay: Half-maximal cell-inhibitory concentration on U251-MG cells (CCK-8); type: cell-based; conditions: Homo sapiens, U-251, U251-MG cells (DHX33-overexpressing cancer cell strain), 48 hours, read-out: IC50 (half-maximal inhibitory concentrations of compounds on U251-MG cells)
Protocol: U251-MG cells were purchased from the cell bank of the Chinese Academy of Sciences. Cells were cultured in MEM medium containing 10% fetal bovine serum (FBS), 2 mM L-glutammie, streptomycmn and penicillin. The growth conditions were set as follows: a humidified cell incubator (37° C., 5% CO2). Cells were passaged every 3 days and were discarded after 10 passages.
U251-MG cells (a […]-overexpressing cancer cell strain) were seeded on a 96-well plate at 1×10^4 cells/100 μl/well. After the cells were completely attached, the compounds were added to the cell culture medium at a concentration of 5 nM, 10 nM, 25 nM, 50 nM, 100 nM, […], 500 nM, 1000 nM, 2000 nM, […] or 20 μM, and the resulting mixture was uniformly mixed with a multichannel pipette. After the cells were incubated with the compound for 48 hours, CCK-8 reagent (Yeasen Biotechnology (Shanghai) Co., Ltd.) was added to the medium in the 96-well plate in accordance with the standard procedure. After being incubated for 2 hours, the plate was read with a microplate reader (OD=450 nm). The experiment was repeated three times, the inhibition curve of the compound at different concentrations was plotted, and the half-maximal inhibitory concentration (IC50) of the compound was calculated.

| SMILES | IC50 (DHX33 protein) | IC50 (U251-MG cells) |
| --- | --- | --- |
| COc1ccc2nc(/C(C#N)=C/c3cc(C)n(-c4oc(C)c(C)c4C#N)c3C)[nH]c2c1 [AB24202, (E)-2-(3-(2-cyano-2-(6-methoxy-1H-benzo[d]imidazol-2-yl)vinyl)-2,5-dimethyl-1H-pyrrol-1-yl)-4,5-dimethylfuran-3-carbonitrile] | 20 to 100 nM | 100 to 1000 nM |
| Cc1oc(-n2c(C)cc(/C=C(\C#N)c3nc4ccc(F)cc4[nH]3)c2C)c(C#N)c1C [AB24205] | 100 to 400 nM | 1000 to 5000 nM |
| Cc1oc(-n2c(C)cc(/C=C(\C#N)c3nc4ccc(C(F)(F)F)cc4[nH]3)c2C)c(C#N)c1C [AB24243, (E)-2-(3-(2-cyano-2-(6-(trifluoromethyl)-1H-benzo[d]imidazol-2-yl)vinyl)-2,5-dimethyl-1H-pyrrol-1-yl)-4,5-dimethylfuran-3-carbonitrile] | 100 to 400 nM | 1000 to 5000 nM |
| Cc1oc(-n2c(C)cc(/C=C(\C#N)c3nc4ccncc4[nH]3)c2C)c(C#N)c1C [AB24249] | 100 to 400 nM | 5000 to 20000 nM |
| COc1cc2nc(/C(C#N)=C/c3cc(C)n(-c4oc(C)c(C)c4C#N)c3C)[nH]c2cn1 [AB24254, (E)-2-(3-(2-cyano-2-(6-methoxy-3H-imidazo[4,5-c]pyridin-2-yl)vinyl)-2,5-dimethyl-1H-pyrrol-1-yl)-4,5-dimethylfuran-3-carbonitrile] | < 20 nM | < 100 nM |
| Cc1cc(/C=C(\C#N)c2nc3ccccc3[nH]2)c(C)n1-c1ccncc1 [AB24259] | 100 to 400 nM | 1000 to 5000 nM |
| Cc1sc(-n2c(C)cc(/C=C(\C#N)c3nc4ccccc4[nH]3)c2C)c(C#N)c1C [AB24264, (E)-2-(3-(2-(1-(1-H-benzo[d]imidazol-2-yl]-2-cyanovinyl])-2,5-dimethyl-1H-pyrrol-1-yl)-4,5-dimethylthiophene-3-carbonitrile] | 100 to 400 nM | 1000 to 5000 nM |
| Cc1cc(C#N)c(-n2c(C)cc(/C=C(\C#N)c3nc4ccccc4[nH]3)c2C)s1 [AB24270, (E)-2-(3-(2-(1H-benzo[d]imidazol-2-yl)-2-cyanovinyl)-2,5-dimethyl-1H-pyrrol-1-yl)-5-methylthiophene-3-carbonitrile] | 20 to 100 nM | 100 to 1000 nM |
| Cc1cc(/C=C(\C#N)c2nc3ccccc3[nH]2)c(C)n1-c1oc(-c2ccccc2)cc1C#N [AB24283, (E)-2-(3-(2-(1H-benzo[d]imidazol-2-yl)-2-cyanovinyl)-2,5-dimethyl-1H-pyrrol-1-yl)-5-phenylfuran-3-carbonitrile] | 100 to 400 nM | 1000 to 5000 nM |
| COc1cc2nc(/C(C#N)=C/c3cc(C)n(-c4sc(C)cc4C#N)c3C)[nH]c2cn1 [AB24288, (E)-2-(3-(2-cyano-2-(6-methoxy-3H-imidazo[4,5-c]pyridin-2-yl)vinyl)-2,5-dimethyl-1H-pyrrol-1-yl)-5-methylthiophene-3-carbonitrile] | < 20 nM | < 100 nM |
| CCOC(=O)c1nc(C)sc1-n1c(C)cc(/C=C(\C#N)c2nc3cc(OC)ncc3[nH]2)c1C [AB24314, ethyl (E)-5-(3-(2-cyano-2-(6-methoxy-3H-imidazo[4,5-c]pyridin-2-yl)vinyl)-2,5-dimethyl-1H-pyrrol-1-yl)-2-methylthiazole-4-carboxylate] | 20 to 100 nM | 100 to 1000 nM |
| COc1ccc2nc(/C(C#N)=C/c3cc(C)n(-c4sc(C)cc4C#N)c3C)[nH]c2c1 [AB24321] | < 20 nM | 100 to 1000 nM |
| COC(=O)c1c(-n2c(C)cc(/C=C(\C#N)c3nc4ccc(OC)cc4[nH]3)c2C)sc(C)c1C [AB24322, methyl (E)-2-(3-(2-cyano-2-(6-methoxy-1H-benzo[d]imidazol-2-yl)vinyl)-2,5-dimethyl-1H-pyrrol-1-yl)-4,5-dimethylthiophene-3-carboxylate] | 100 to 400 nM | 1000 to 5000 nM |
| COC(=O)c1cc(C)c(-n2c(C)cc(/C=C(\C#N)c3nc4cc(OC)ncc4[nH]3)c2C)s1 [AB24335] | 20 to 100 nM | 1000 to 5000 nM |
| COc1ccc2c(c1)[nH]c1cc(-c3cc(C)n(-c4sc(C)cc4C#N)c3C)ccc12 [AB24350, 2-(3-(7-methoxy-9H-carbazol-2-yl)-2,5-dimethyl-1H-pyrrol-1-yl)-5-methylthiophene-3-carbonitrile] | 100 to 400 nM |  |
| COc1ccc2nc(NC(=O)c3cc(C)n(-c4oc(C)c(C)c4C#N)c3C)[nH]c2c1 [AB29510, 1-(3-cyano-4,5-dimethylfuran-2-yl)-N-(6-methoxy-1H-benzo[d]imidazol-2-yl)-2,5-dimethyl-1H-pyrrole-3-carboxamide] |  | 100 to 1000 nM |
| COc1cc2nc(/C(C#N)=C/c3cc(C)n(Cc4ccncc4)c3C)[nH]c2cn1 [AB29512, (E)-3-(2,5-dimethyl-1-(pyridin-4-ylmethyl)-1H-pyrrol-3-yl)-2-(6-methoxy-3H-imidazo[4,5-c]pyridin-2-yl)acrylonitrile] |  | < 100 nM |
| COc1ccc2nc(NC(=O)c3cc(C)n(Cc4cnn(C)c4)c3C)[nH]c2c1 [AB29513, N-(6-methoxy-1H-benzo[d]imidazol-2-yl)-2,5-dimethyl-1-((1-methyl-1H-pyrazol-4-yl)methyl)-1H-pyrrole-3-carboxamide] |  | 5000 to 20000 nM |
| COC(=O)c1cc(Cl)sc1-n1c(C)cc(/C=C(\C#N)c2nc3cc(OC)ncc3[nH]2)c1C [AR24318] |  | 100 to 1000 nM |
